Measurements as given in patent publication US11584747B2, “Substituted pyridopyrimidinonyl compounds useful as T cell activators” (BRISTOL-MYERS SQUIBB COMPANY, priority 2019, dated 2023).
Where two headings read alike, the source gives them in different places.

Key:
human DGKα = human DGKα (Homo sapiens (Human), UniProt P23743); assay: DGKα ADPGLO assay (detergent/lipid micelle substrate); format: biochemical
Experimental: DGK Alpha ADPGLO (Truncated) IC50 (uM)
The detergent/lipid micelle was prepared by combining 15 g phosphatidylserine (Avanti 840035P) and 1 g diacylglycerol (8008110) and dissolving into 150 mL chloroform in a 2 L round bottom flask. Chloroform was removed under high vacuum by rotary evaporation. […] The lipid/detergent solution was split into 5 mL aliquots and stored at −80° C.

[1] = system: human venous whole blood (IFN-γ); assay: Human whole blood IFN-γ assay; format: cell-based; conditions: whole blood; normalized to 3 μM reference compound as 100% activation; read-out: IFN-γ Whole Blood Normalized EC50
Experimental: Human venous whole blood (22.5 μL per well), obtained from healthy donors, was pre-treated with compounds for one hour at 37° C. in a humidified 95% air/5% CO2 incubator. The blood was stimulated with 2.5 μL anti-human CD3 and anti-CD28 mAb at a final concentration of 1 μg/mL each for 24 hours at 37° C. IFN-γ in the supernatants was measured using AlphLISA kit (Cat #AL217).

human DGKζ = human DGKζ (Homo sapiens (Human), UniProt Q13574); assay: DGKζ LIPGLO assay (extruded liposome substrate, ADP-Glo luminescence); format: biochemical
Sequence of human DGKζ (Q13574 other isoform, or with tags, fused parts or gaps): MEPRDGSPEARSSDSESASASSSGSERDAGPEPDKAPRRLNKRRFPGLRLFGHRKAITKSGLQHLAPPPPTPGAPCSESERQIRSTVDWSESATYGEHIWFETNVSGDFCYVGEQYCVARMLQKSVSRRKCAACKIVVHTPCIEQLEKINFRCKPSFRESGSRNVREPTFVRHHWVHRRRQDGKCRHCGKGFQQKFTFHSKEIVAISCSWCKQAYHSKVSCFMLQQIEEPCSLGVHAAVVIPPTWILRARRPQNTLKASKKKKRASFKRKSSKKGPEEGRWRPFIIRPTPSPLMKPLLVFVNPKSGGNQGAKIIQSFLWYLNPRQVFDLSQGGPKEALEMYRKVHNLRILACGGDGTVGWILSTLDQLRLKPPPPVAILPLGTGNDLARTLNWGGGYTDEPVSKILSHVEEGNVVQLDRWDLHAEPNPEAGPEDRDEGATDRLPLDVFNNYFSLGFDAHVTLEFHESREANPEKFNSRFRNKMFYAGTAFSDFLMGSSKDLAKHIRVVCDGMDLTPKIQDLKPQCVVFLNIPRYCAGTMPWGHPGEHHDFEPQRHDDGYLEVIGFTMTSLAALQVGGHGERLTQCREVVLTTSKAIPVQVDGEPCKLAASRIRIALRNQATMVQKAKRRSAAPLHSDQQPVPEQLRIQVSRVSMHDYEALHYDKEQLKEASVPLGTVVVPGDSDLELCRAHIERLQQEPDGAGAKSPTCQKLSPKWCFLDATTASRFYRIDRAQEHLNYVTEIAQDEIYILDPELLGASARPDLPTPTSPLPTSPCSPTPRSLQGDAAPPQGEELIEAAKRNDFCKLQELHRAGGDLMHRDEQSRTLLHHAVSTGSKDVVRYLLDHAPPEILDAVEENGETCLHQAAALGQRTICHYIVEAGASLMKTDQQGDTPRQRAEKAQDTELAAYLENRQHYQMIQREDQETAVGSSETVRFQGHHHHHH

[2] = truncated DGK alpha, read-out: DGK alpha ADPGLO (Truncated) IC50
[3] = liposome (LIPGLO) assay, read-out: DGK zeta (liposome assay) IC50
[4] = ADPGLO assay, read-out: DGK alpha ADPGLO IC50
[5] = liposome assay, read-out: DGK zeta LIPGLO IC50

Sequence of human DGKα (P23743 whole entry, looked up, the tested form may be a part): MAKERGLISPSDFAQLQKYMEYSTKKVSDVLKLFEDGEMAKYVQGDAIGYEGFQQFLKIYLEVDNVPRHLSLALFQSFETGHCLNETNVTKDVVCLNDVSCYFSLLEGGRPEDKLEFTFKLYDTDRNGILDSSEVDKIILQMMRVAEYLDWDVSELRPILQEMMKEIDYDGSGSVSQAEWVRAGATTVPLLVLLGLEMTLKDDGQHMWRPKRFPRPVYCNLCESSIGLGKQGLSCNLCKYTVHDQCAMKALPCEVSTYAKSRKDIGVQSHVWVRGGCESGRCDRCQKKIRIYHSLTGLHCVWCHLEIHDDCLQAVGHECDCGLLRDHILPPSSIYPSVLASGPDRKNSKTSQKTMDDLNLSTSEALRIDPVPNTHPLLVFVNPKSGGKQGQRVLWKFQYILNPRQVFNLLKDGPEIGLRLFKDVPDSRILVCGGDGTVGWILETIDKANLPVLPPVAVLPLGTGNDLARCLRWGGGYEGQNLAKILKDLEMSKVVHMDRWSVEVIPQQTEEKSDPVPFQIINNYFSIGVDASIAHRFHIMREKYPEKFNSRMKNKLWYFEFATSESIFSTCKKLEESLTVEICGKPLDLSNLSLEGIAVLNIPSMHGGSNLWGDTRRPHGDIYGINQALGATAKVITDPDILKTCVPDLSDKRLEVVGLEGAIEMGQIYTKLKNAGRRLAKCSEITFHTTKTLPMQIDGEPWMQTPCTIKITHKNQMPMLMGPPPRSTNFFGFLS

SMILES	IC50 (human DGKα; [2]) [nM]	IC50 (human DGKζ; [3]) [nM]	IC50 (human DGKα; [4]) [nM]	IC50 (human DGKζ; [5]) [nM]	EC50 [1] [nM]
CCCC(c1ccc(C(F)(F)F)cc1)N1C[C@H](CC)N(c2nc(=O)n(C)c3ccc(C#N)nc23)C[C@H]1CC (stereo partly drawn) [Example 243, 4-((2S,5R)-2,5-Diethyl-4-(1-(4-(trifluoromethyl)phenyl)butyl)piperazin-1-yl)-1-methyl-2-oxo-1,2-dihydropyrido[3,2-d]pyrimidine-6-carbonitrile]	6				59
CC[C@H]1CN(C(c2ccc(F)cc2)c2cccc(C(F)F)n2)[C@H](CC)CN1c1nc(=O)n(C)c2ccc(C#N)nc12 (stereo partly drawn) [Example 257, 4-((2S,5R)-4((6-(difluoromethyl)pyridin-2-yl)(4-fluorophenyl)methyl)-2,5-diethylpiperazin-1-yl)-1-methyl-2-oxo-1,2-dihydropyrido[3,2-d]pyrimidine-6-carbonitrile]	170			250	
CC[C@H]1CN(C(C)c2ccc(CN3CCN(C)C(=O)C3)cc2)[C@H](CC)CN1c1nc(=O)n(C)c2ccc(C#N)nc12 (stereo partly drawn) [Example 288, 4-((2S,5R)-2,5-diethyl-4-(1-(4-((4-methyl-3-oxopiperazin-1-yl)methyl)phenyl)ethyl)piperazin-1-yl)-1-methyl-2-oxo-1,2-dihydropyrido[3,2-d]pyrimidine-6-carbonitrile]	4110			31700	
CCC(c1ccc(C2CC2)cc1)N1C[C@H](C)N(c2nc(=O)n(C)c3ccc(C#N)nc23)C[C@H]1C (stereo partly drawn) [Example 379, 4-((2S,5R)-4-(1-(4-cyclopropylphenyl)propyl)-2,5-dimethylpiperazin-1-yl)-1-methyl-2-oxo-1,2-dihydropyrido[3,2-d]pyrimidine-6-carbonitrile]		3600	450		
CC[C@H]1CN(C(C)c2ccc(CN3CCN(C)C(=O)C3)cc2)[C@H](CC)CN1c1nc(=O)n(C)c2ccc(C#N)nc12 (stereo partly drawn) [Example 287, 4-((2S,5R)-2,5-diethyl-4-(1-(4-((4-methyl-3-oxopiperazin-1-yl)methyl)phenyl)ethyl)piperazin-1-yl)-1-methyl-2-oxo-1,2-dihydropyrido[3,2-d]pyrimidine-6-carbonitrile]	210			500	
CCC(c1ccc(OC(F)F)cc1)N1C[C@H](CC)N(c2nc(=O)n(C)c3ccc(C#N)nc23)C[C@H]1CC (stereo partly drawn) [Example 222, 4-((2S,5R)-4-(1-(4-(difluoromethoxy)phenyl)propyl)-2,5-diethylpiperazin-1-yl)-1-methyl-2-oxo-1,2-dihydropyrido[3,2-d]pyrimidine-6-carbonitrile]	2			17	
CCC(c1ccc(OC2CC2)cc1)N1C[C@H](C)N(c2nc(=O)n(C)c3ccc(C#N)nc23)C[C@H]1CC (stereo partly drawn) [Example 311, 4-((2S,5R)-4-(1-(4-cyclopropoxyphenyl)propyl)-5-ethyl-2-methylpiperazin-1-yl)-1-methyl-2-oxo-1,2-dihydropyrido[3,2-d]pyrimidine-6-carbonitrile]		6	13		
CC[C@H]1CN(C(C)c2ccc(CN3CCC(O)CC3)cc2)[C@H](CC)CN1c1nc(=O)n(C)c2ccc(C#N)nc12 (stereo partly drawn) [Example 285, 4-((2S,5R)-2,5-diethyl-4-(1-(4-((4-hydroxypiperidin-1-yl)methyl)phenyl)ethyl)piperazin-1-yl)-1-methyl-2-oxo-1,2-dihydropyrido[3,2-d]pyrimidine-6-carbonitrile]	4100			8540	
CC[C@@H]1CN(c2nc(=O)n(C)c3ccc(C#N)nc23)[C@@H](C)CN1C(C)c1ccc(CNC(=O)OC)cc1 (stereo partly drawn) [Example 360, Methyl (4-(1-((2R,5S)-4-(6-cyano-1-methyl-2-oxo-1,2-dihydropyrido[3,2-d]pyrimidin-4-yl)-2-ethyl-5-methylpiperazin-1-yl)ethyl)benzyl)carbamate]		660	150		
CC[C@@H]1CN(c2nc(=O)n(C)c3ccc(C#N)nc23)[C@@H](C)CN1C(c1nc(C2CC2)no1)C(C)C (stereo partly drawn) [Example 366, 4-((2S,5R)-4-(1-(3-cyclopropyl-1,2,4-oxadiazol-5-yl)-2-methylpropyl)-5-ethyl-2-methylpiperazin-1-yl)-1-methyl-2-oxo-1,2-dihydropyrido[3,2-d]pyrimidine-6-carbonitrile]		620	1450		
CC[C@H]1CN(C(C)c2ccc(CN3CCCCC3)cc2)[C@H](CC)CN1c1nc(=O)n(C)c2ccc(C#N)nc12 (stereo partly drawn) [Example 282, 4-((2S,5R)-2,5-diethyl-4-(1-(4-(piperidin-1-ylmethyl)phenyl)ethyl)piperazin-1-yl)-1-methyl-2-oxo-1,2-dihydropyrido[3,2-d]pyrimidine-6-carbonitrile]	150			1160	
CC[C@H]1CN(C(C)c2ccc(C(C)(C)N3CCOCC3)cc2)[C@H](CC)CN1c1nc(=O)n(C)c2ccc(C#N)nc12 (stereo partly drawn) [Example 247, 4-((2S,5R)-2,5-diethyl-4-(1-(4-(2-morpholinopropan-2-yl)phenyl)ethyl)piperazin-1-yl)-1-methyl-2-oxo-1,2-dihydropyrido[3,2-d]pyrimidine-6-carbonitrile]	5870			840	
CCC(c1ccc(OC(C)C)cc1)N1C[C@H](CC)N(c2nc(=O)n(C)c3ccc(C#N)nc23)C[C@H]1CC (stereo partly drawn) [Example 235, 4-((2S,5R)-2,5-diethyl-4-(1-(4-isopropoxyphenyl)propyl)piperazin-1-yl)-1-methyl-2-oxo-1,2-dihydropyrido[3,2-d] pyrimidine-6-carbonitrile]	430			780	
CC[C@@H]1CN(c2nc(=O)n(C)c3ccc(C#N)nc23)[C@@H](C)CN1C(c1nnc(C2CC2)o1)C(C)C (single isomer, unassigned) [Example 367]		850	120		
CC[C@@H]1CN(c2nc(=O)n(C)c3ccc(C#N)nc23)[C@@H](CC)CN1Cc1ccc(OCC2CC2)cc1 [Example 185, 4-((2S,5R)-4-(4-(Cyclopropylmethoxy)benzyl)-2,5-diethylpiperazin-1-yl)-1-methyl-2-oxo-1,2-dihydropyrido[3,2-d]pyrimidine-6-carbonitrile]	270			610	

Second part, led by results:

IC50 (human DGKα; [2]) [nM]	IC50 (human DGKζ; [3]) [nM]	IC50 (human DGKα; [4]) [nM]	IC50 (human DGKζ; [5]) [nM]	SMILES	EC50 [1] [nM]
	12100	10200		CCC(C1CC(F)(F)C1)N1C[C@H](C)N(c2nc(=O)n(C)c3ccc(C#N)nc23)C[C@H]1C (stereo partly drawn) [Example 456, 4-((2S,5R)-4-(1-(3,3-difluorocyclobutyl)propyl)-2,5-dimethylpiperazin-1-yl)-1-methyl-2-oxo-1,2-dihydropyrido[3,2-d]pyrimidine-6-carbonitrile]	
	250000	250000		CCOc1ccc2c(n1)c(N1C[C@@H](CC)N(C(CC)c3ccc(C(F)(F)F)cc3)C[C@@H]1CC)nc(=O)n2C (stereo partly drawn) [Example 437, 4-((2S,5R)-2,5-diethyl-4-(1-(4-(trifluoromethyl)phenyl)propyl)piperazin-1-yl)-6-ethoxy-1-methylpyrido[3,2-d]pyrimidin-2(1H)-one]	
	2370	220		COC[C@H]1CN(C(C)c2ccc(C(F)(F)F)cc2)[C@H](C)CN1c1nc(=O)n(C)c2ccc(C#N)nc12 (single isomer, unassigned) [Example 410]	
	750	440		CC[C@@H]1CN(c2nc(=O)[nH]c3ccc(C#N)nc23)[C@@H](C)CN1C(C)c1ccc(C(F)(F)F)cc1 (single isomer, unassigned) [Example 413]	
	23900	29800		CCC(C1CCC(F)(F)CC1)N1C[C@H](C)N(c2nc(=O)n(C)c3ccc(C#N)nc23)C[C@H]1C (stereo partly drawn) [Example 459, 4-((2S,5R)-4-(1-(4,4-difluorocyclohexyl)propyl)-2,5-dimethylpiperazin-1-yl)-1-methyl-2-oxo-1,2-dihydropyrido[3,2-d]pyrimidine-6-carbonitrile]	
	760	90		[2H]C([2H])([2H])n1c(=O)nc(N2C[C@@H](CC)N(C(C)c3ccc(C(F)(F)F)cc3)C[C@@H]2C)c2nc(C#N)ccc21 (single isomer, unassigned) [Example 420]	
	180	29		CCC(c1ccc(C2CC2)cc1F)N1C[C@H](C)N(c2nc(=O)n(C)c3ccc(C#N)nc23)C[C@H]1C (stereo partly drawn) [Example 380, 4-((2S,5R)-4-(1-(4-cyclopropyl-2-fluorophenyl)propyl)-2,5-dimethylpiperazin-1-yl)-1-methyl-2-oxo-1,2-dihydropyrido[3,2-d]pyrimidine-6-carbonitrile]	
	12000	11600		CCC(C1CCC(F)(F)CC1)N1C[C@H](C)N(c2nc(=O)n(C)c3ccc(C#N)nc23)C[C@H]1C (stereo partly drawn) [Example 460, 4-((2S,5R)-4-(1-(4,4-difluorocyclohexyl)propyl)-2,5-dimethylpiperazin-1-yl)-1-methyl-2-oxo-1,2-dihydropyrido[3,2-d]pyrimidine-6-carbonitrile]	
	6470	7740		CCC(C1CC(F)(F)C1)N1C[C@H](C)N(c2nc(=O)n(C)c3ccc(C#N)nc23)C[C@H]1C (stereo partly drawn) [Example 458, 4-((2S,5R)-4-(1-(3,3-difluorocyclobutyl)propyl)-2,5-dimethylpiperazin-1-yl)-1-methyl-2-oxo-1,2-dihydropyrido[3,2-d]pyrimidine-6-carbonitrile]	
